What was measured:
[1] = test system: 4T1 tumor cells; test: Mouse 4T1 breast tumor model: Compound A in preventing lung and liver metastasis of a primary breast tumor (Biological Example 1); assay type: in vivo, BALB/c mice; conditions: 21 days; for effect on the number of large lung metastases, difference to vehicle: FIG. 3; for effect on the incidence of liver micrometastases, difference to Cisplatin at 1.2 mg/kg / effect on the incidence of liver micrometastases, difference to vehicle: FIG. 4; for effect on the number of medium lung metastases, difference to vehicle: FIG. 2
Experimental: Protocol Eighty-eight BALB/c mice were inoculated with 5×10^5 4T1 tumor cells (ATCC) orthotoically into the third mammary fat pad. On Day 0 of the study (2 days post-inoculation), 80 mice were randomized into 8 groups (10 mice per group). Dose administration began on Day 0 and continued for 21 days (3 weeks). Compound A was administered twice a day, Cisplatin was administered once a week, and Zometa was administered three times weekly. Tumor measurements were performed three times per week, starting when tumors were palpable (approximately 3×3 mm). Body weight measurements were taken three times per week at the same time each day. Tumor and body weight measurements fall all mice were measured prior to dose administration. On Day 21 of the treatment, mice were euthanized and the lungs exposed and the numbers of surface lung metastases were counted. The size of each metastasis was measured using a caliper in one dimenstion and categorized as follows: Small: Less than 2 mm Medium: Greater or equal to 2 mm Large: Greater or equal to 3 mm The lungs and livers from all mice were excised and placed in PLP fixative and stained for micrometastasis quantification.

[2] = test system: 4T1 tumor cells; test: Mouse 4T1 breast tumor model: Compound A in combination with Cisplatin in preventing lung and liver metastasis (Biological Example 2); assay type: in vivo, BALB/c mice; conditions: 21 days, FIG. 7
Experimental: Using a variation of the mouse 4T1 breast tumor model, as described in Current Protocols in Immunology (2000), 20.2.1-20.2.16, Compound A in combination with Cisplatin was assayed to determine the efficacy of the combination therapy to prevent, treat or manage metastatic cancer in BALB/c mice.
• Vehicle: 0.5% HPMC/0.1% Tween. • Compound A: Preformulated dosing solutions in vehicle for 7 mg/kg and 21 mg/kg for oral administration. • Cisplatin: Diluted in sterile saline for 1.2 mg/kg (suboptimal clinical formulation) for intravenous administration. Protocol
Sixty-six BALB/c mice were inoculated with 5×10^5 4T1 tumor cells (ATCC) orthotoically into the third mammary fat pad. On Day 0 of the study (2 days post-inoculation), 60 mice were randomized into 6 groups (10 mice per group). Dose administration began on Day 0 and continued for 21 days (3 weeks). Compound A was administered twice a day, Cisplatin was administered once a week, and Zometa was administered three times weekly. Tumor measurements were performed three times per week, starting when tumors were palpable (approximately 3×3 mm). Body weight measurements were taken three times per week at the same time each day. Tumor and body weight measurements fall all mice were measured prior to dose administration.
On Day 21 of the treatment, mice were euthanized and the lungs exposed and the number of surface lung metastases were counted. The size of each metastasis was measured using a caliper in one dimenstion and categorized as follows:
Medium: Greater or equal to 2 mm
Large: Greater or equal to 3 mm
The lungs and livers from all mice were excised and placed in PLP fixative and stained for micrometastasis quantification.

[3] = Cisplatin 1.2 mg/kg intravenous once a week, p<0.05, Mann-Whitney Test
[4] = Cisplatin 2.4 mg/kg intravenous once a week, p<0.05, Mann-Whitney Test
[5] = Compound A 25 mg/kg oral twice a day, p<0.05, Mann-Whitney Test
[6] = Compound A 45 mg/kg oral twice a day, p<0.05, Mann-Whitney Test

N.N.[Cl][Pt][Cl] [Cisplatin, cis-diamminedichloridoplatinum(II), reference compound]
significant: effect on the number of large lung metastases, difference to vehicle [1, 3] | effect on the number of large lung metastases, difference to vehicle [1, 4] | effect on the incidence of liver micrometastases, difference to Cisplatin at 1.2 mg/kg [1, 4] | effect on the incidence of liver micrometastases, difference to Cisplatin at 1.2 mg/kg ([1]; Cisplatin 4 mg/kg intravenous once a week, p<0.05, Mann-Whitney Test) | effect on the number of medium lung metastases, difference to vehicle ([1]; cisplatin 4 mg/kg intravenous once a week, p<0.001, Mann-Whitney Test) | effect on reducing the number of large lung metastases, difference to vehicle [2, 3]

Nc1nc(Nc2ccc3c(c2)CC[C@@H](N2CCCC2)CC3)nn1-c1cc2c(nn1)-c1ccccc1CCC2 [Compound A, 1-(6,7-dihydro-5H-benzo[6,7]cyclohepta[1,2-c]pyridazin-3-yl)-N^3-((7-(S)-pyrrolidin-1-yl)-6,7,8,9-tetrahydro-5H-benzo[7]annulene-2-yl)-1H-1,2,4-triazole-3,5-diamine]
significant: effect on the number of large lung metastases, difference to vehicle [1, 5] | effect on the incidence of liver micrometastases, difference to vehicle [1, 5] | effect on the number of medium lung metastases, difference to vehicle [1, 6] | effect on the incidence of liver micrometastases, difference to vehicle [1, 6] | effect on the incidence of liver micrometastases, difference to vehicle ([1]; Compound A 75 mg/kg oral twice a day, p<0.05, Mann-Whitney Test) | effect on reducing the number of large lung metastases, difference to vehicle ([2]; Compound A 7 mg/kg oral twice a day, p<0.01, Mann-Whitney Test) | effect on reducing the number of large lung metastases, difference to vehicle ([2]; Compound A 21 mg/kg oral twice a day, p<0.01, Mann-Whitney Test)

O=P(O)(O)C(O)(Cn1ccnc1)P(=O)(O)O [Zometa, reference compound]
significant: effect on the incidence of liver micrometastases, difference to vehicle ([1]; Zometa 0.1 mg/kg subcutaneous three times weekly, p<0.05, Mann-Whitney Test)
